# “Also recorded” adds a separate entry of the source. Where two headings read alike, the source gives them in different places.
# How the values were obtained:
# astacin = conditions: cited from earlier work
# D. immitis larvae = test: Effect of protease inhibitors on larval molting (L3 cultured in NI medium); assay type: cell-based, Dirofilaria immitis; conditions: for % molt: L3 larvae, 72 hours, 37° C.; for inhibition at 1000 µM / inhibition at 2500 µM / inhibition at 5000 µM: Dirofilaria immitis, 72 h, read-out: % reduction (of molt vs control)
SMILES,inhibition of astacin activity (astacin),% molt (D. immitis larvae; 1.0 mM inhibitor) [%],% molt (D. immitis larvae; 2.5 mM inhibitor) [%],% molt (D. immitis larvae; 5.0 mM inhibitor) [%],inhibition at 1000 µM (D. immitis larvae) [%],inhibition at 2500 µM (D. immitis larvae) [%],inhibition at 5000 µM (D. immitis larvae) [%],movement of treated larvae compared to controls (D. immitis larvae; observed daily throughout the study),"ability of the larvae to molt (D. immitis larvae; treatment of L3, 1 to 5 mM)",ability of the larvae to molt (D. immitis larvae),condition of treated larvae (D. immitis larvae),movement of treated larvae compared to controls (D. immitis larvae)
"c1cnc2c(c1)ccc1cccnc12 [1,10-phenanthroline]",inhibited,–,–,–,–,–,–,–,–,–,–,–
CC(C)C[C@H](NC(=O)[C@@H](O)[C@H](N)Cc1ccccc1)C(=O)O [Bestatin],–,60.0,34.8,4.9,27.3,57.9,94.1,moved much more slowly,inhibit molting; also recorded: significantly reduces the ability of the larvae to molt,–,–,–
"O=C(O)CN(CCN(CC(=O)O)CC(=O)O)CC(=O)O [EDTA, ethylene diamine tetraacetic acid]",inhibited,–,–,–,–,–,–,–,–,–,–,–
CC(C)C[C@H](NP(=O)(O)O[C@@H]1O[C@@H](C)[C@H](O)[C@@H](O)[C@H]1O)C(=O)N[C@@H](Cc1c[nH]c2ccccc12)C(=O)O [Phosphoramidon],not by phosphoramidon,–,–,–,48.4,85.1,100,–,–,inhibit molting; also recorded: significantly reduces the ability of the larvae to molt,in poor shape,very active

# From patent US5750391A, “Filariid nematode cysteine protease proteins” (Heska Corporation, priority 1995, dated 1998)
